From PubChem BioAssay AID2305 (GlaxoSmithKline (GSK), 2010) come the findings set out here.

This assay deals with P. falciparum 3D7 growth, pLDH absorbance. Kind of assay: blood-stage malaria parasite growth potency – strain 3D7, dose response (AID 2305).
As usually defined, the IC50 is the concentration that gives 50% inhibition. For `COc1cc(Cc2cnc(N)nc2N)cc(OCCCCC2SC(=O)NC2=O)c1Br` (centres undefined), the IC50 was determined as 0.12 µM.
The same measure for `CCc1c(CCNCCc2cccc(CCNCCc3ccc(OC)c(OC)c3CC)c2)ccc(OC)c1OC`: 0.36 µM; for `CCCCCn1c(Sc2ccc(C#N)c([N+](=O)[O-])c2)nnc1-c1cccc(Cl)c1`: 0.77 µM.
The result for `COc1ccc(OCCCON)cc1` reads 0.17 µM; that for `CS(=O)(=O)CCN(CCS(C)(=O)=O)Cc1ccc(-c2ccc3ncnc(Nc4ccc(OCc5cccc(F)c5)c(Cl)c4)c3c2)o1`, 1.02 µM.
`CCOc1cc2ncnc(Nc3ccc(OCc4c(F)cccc4F)c(OC)c3)c2cc1OCC` gave an IC50 of 0.82 µM.
The same measure for `O=C(NCCN1CCN(S(=O)(=O)c2ccc(OC3CCNCC3)c(Br)c2)CC1)c1ccc(Cl)c(Cl)c1`: 0.89 µM; for `CO/C(=C\C=C\c1cc2cc(Cl)c(Cl)cc2[nH]1)C(=O)Nc1ccc(NCCN(C)C)nc1`: 0.77 µM.
The same measure for `COc1cccc(C(=O)Nc2sc3c(c2C(N)=O)CCCC3)c1OC`: 0.93 µM.
`CO/C(=C\C=C\c1cc2cc(Cl)c(Cl)cc2[nH]1)C(=O)NCCCN1CCN(c2cccc(OC)c2)CC1`: the 50% inhibitory concentration (IC50) amounted to 0.84 µM.
The same measure for `CCN1CCN(c2cc(C)c3cc(NC(=O)c4ccc(Br)o4)ccc3n2)CC1`: 0.75 µM; for `N=C(N)c1ccc(NN=Cc2ccc(Oc3ccc(C(=N)N)cc3)cc2)cc1`: 0.09 µM; for `COc1cc2c(cc1NC(=O)CN1CCN(C(=O)c3ccco3)CC1)oc1ccccc12`: 0.42 µM.
The result for `COc1ccc(CCNCc2cc3c(C(C)(C)C)nn(-c4ccc(Cl)cc4)c3[nH]c2=O)cc1OC` reads 0.15 µM.
The result for `CCNc1cc(C)nc(Nc2ccc(NC(=O)c3ccccc3)cc2)n1` reads 1.02 µM; that for `CC(C)CCN1CCC(Oc2ccc(NC(=O)c3ccsc3)cc2Cl)CC1`, 1.04 µM.
Turning to `Cc1cccc(OC(C)C(=O)Nc2cc(C(F)(F)F)ccc2N2CCOCC2)c1` (centres undefined), the IC50 amounted to 0.24 µM.
Turning to `COc1ccc(Nc2ncc3c(-c4cccc(NC(=O)c5ccccc5)c4)c[nH]c3n2)cc1OC`, the IC50 was determined as 0.46 µM.
The result for `COc1ccc2nccc([C@@H](O)CN3CC[C@H](NCc4ccc5c(n4)NC(=O)CS5)[C@H](F)C3)c2c1` reads 0.91 µM; that for `Cc1cc(N[C@@H](Cc2ccccc2)C(=O)NCc2cccc(F)c2)nc(NCCc2ccccc2)n1`, 1.02 µM.
The same measure for `CC(C)(C)OC(=O)Nc1cccc(-c2csc(N=C(N)N)n2)c1`: 0.84 µM; for `COc1ccc2nccc([C@@H](O)CN3CCC(NCc4nc5c(C#N)cccc5[nH]4)CC3)c2c1`: 1 µM.
The result for `COc1ccc2nccc([C@@H](O)CN3CCC(NCc4cc5oc(=O)n(C)c5cc4F)CC3)c2c1` reads 0.66 µM; that for `COC(=O)Nc1cc(C(F)(F)F)ccc1N1CCC(CNS(=O)(=O)c2ccc(OC)cc2)CC1`, 0.25 µM; that for `COc1cccc2cc(C(=O)N[C@@H](CC(C)C)C(=O)N[C@H](/C=N/NC(=O)c3ccccc3)Cc3cnc[nH]3)oc12`, 0.13 µM.
On to `CC(C)CNc1c2c(nc3cnn(-c4c5c(nc6cn[nH]c46)CCCC5)c13)CCCC2`, for which the IC50 was 0.79 µM.
The result for `Cc1ccc(Nc2nc(NN=Cc3ccccc3[N+](=O)[O-])nc(Nc3ccc([N+](=O)[O-])cc3)n2)cc1C` reads 0.69 µM; that for `Cc1nc(-c2cccc(C(F)(F)F)c2)n2nc(Nc3ccc(OCCN4CCCC4)cc3)ncc12`, 0.75 µM; that for `Cc1cc(N(C)C)nc(Nc2ccc(NS(=O)(=O)c3ccccc3)cc2)n1`, 1.35 µM.
Molecule `CC(=O)Nc1ccc(C(=O)Nc2cccc(-c3ccc(-c4nc5ccc(F)cc5[nH]4)cc3)c2)cn1` yielded an IC50 of 0.17 µM.
The same measure for `Oc1c(CN2CCC(Cc3ccccc3)CC2)cc(Cl)c2cccnc12`: 0.88 µM; for `O=C(Nc1cccc(F)c1)c1ccc(C(=O)NC2CCN(CC3CCCCC3)CC2)cc1`: 0.86 µM; for `Clc1ccc2c(NCc3ccc4c(c3)OCO4)ccnc2c1`: 0.27 µM.
The same measure for `FC(F)(F)c1cccnc1N1CCC(Nc2nc3ccc(Cl)cc3[nH]2)CC1`: 0.65 µM; for `Cn1c(O)c(N=NC(=S)N2CCOCC2)c2ccccc21`: 0.9 µM.
The same measure for `COC(=O)C(C)NCC(=O)c1ccccc1` (centres undefined): 0.12 µM; for `CCc1c(C)nc(-n2nc(C)cc2NC(=O)CCc2ccccc2)[nH]c1=O`: 0.75 µM.
Regarding `COc1ccccc1C1CC(c2ccccc2)=NN1C(=O)c1ccco1` (centres undefined), the IC50 was found to be 0.4 µM.
The same measure for `Cc1cc(=O)[nH]c(-n2nc(C)cc2NC(=O)CC(c2ccccc2)c2ccccc2)n1`: 1.1 µM; for `CCc1ccc(CN2CCC(CN(C(=O)c3ccccc3)c3ccc(Cl)cc3)CC2)cc1`: 0.99 µM; for `COc1ccc(NC(=O)/C=C/c2ccccc2Cl)cc1OCCN1CCC(NC2CC2)CC1`: 0.84 µM.
The result for `CN1CCCC1CCNCc1cccc(-c2cnc(N(C)C3CCCCC3)nc2)c1` (centres undefined) reads 0.85 µM; that for `CC(=O)Nc1ccc(C(=O)N2CCN(c3ccnc4cc(Cl)ccc34)CC2)cc1`, 0.91 µM; that for `CCCCNc1cc(C)nc(NCc2ccccc2)n1`, 0.97 µM.
The result for `CCSc1nnc(C2CCCN(CC(=O)Nc3cc(C(F)(F)F)ccc3Cl)C2)n1CC` (centres undefined) reads 0.23 µM; that for `O=C(Nc1ccc(-c2ccc(-c3nc4ccccc4[nH]3)s2)cc1)c1ccncc1`, 0.79 µM; that for `CS(=O)(=O)NCCCNCc1ccc(-c2cccc(-c3nc4ccc(F)cc4[nH]3)c2)cc1`, 0.8 µM.
Consider `O=C(Nc1cccc(-c2nn3ncccc3c2-c2ccnc(Nc3ccc(N4CCOCC4)cc3)n2)c1)c1c(F)cccc1F`, for which the IC50 is 0.16 µM.
The result for `CS(=O)(=O)c1cccc(-c2cnc3[nH]cc(-c4ccc(C(=O)O)cc4)c3c2)c1` reads 0.34 µM; that for `COc1cc2nc(N(C)Cc3cccc(I)c3)nc(N)c2cc1OC`, 0.86 µM; that for `Cc1cc(N[C@@H](Cc2ccccc2)C(=O)NCCCOC(C)C)nc(NCCc2ccc(F)cc2)n1`, 0.93 µM.
The same measure for `CN(CCCNc1ccc(C(=O)Nc2ccc(C(F)(F)F)cc2)cc1[N+](=O)[O-])Cc1ccccc1`: 0.23 µM; for `CN(C(=O)Nc1ccc(C(F)(F)F)cc1)C1CCN(CCCCCNC(=O)/C=C/c2ccc(Cl)c(Cl)c2)CC1`: 0.33 µM; for `Cc1ncccc1C(=O)Nc1ccc(-c2cccc(-c3nc4c(C)cccc4[nH]3)c2)cc1`: 0.73 µM.
The result for `CCOc1ccc(CN(CCc2ccc3c(c2)OCO3)Cc2cc(OC)ccc2O)cc1` reads 0.75 µM.
In the case of `CN(C(=O)c1cc2c(-c3cncnc3)cccc2[nH]1)c1ccccc1`, the IC50 was determined as 0.63 µM.
In the case of `COc1ccc(-c2ccc(NC(=O)c3ccc(Cl)cc3)cc2)cc1CN1CCNCC1`, the IC50 turned out to be 0.13 µM.
The result for `Cc1[nH]c(C)c(-c2ccc(Br)cc2)c(=O)c1Cl` reads 0.84 µM.
The same measure for `Cc1cc(N2CCCC2)nc(/N=C(\N)Nc2cccc(C(F)(F)F)c2)n1`: 0.32 µM.
The same measure for `Cc1cccc2[nH]c(-c3cccc(-c4ccc(C(=O)NCc5ccccc5S(C)(=O)=O)cc4)c3)nc12`: 0.75 µM; for `CCCCCCCCCCN1C(=O)C2C(CCCCNC(C)=O)NC3(C(=O)N(Cc4ccc(C(C)(C)C)cc4)c4ccccc43)C2C1=O` (centres undefined): 0.99 µM.
`Cc1onc(-c2ccccc2)c1-c1nc(NC2CCCC(C)C2)no1` (centres undefined): the IC50 came to 0.84 µM.
The same measure for `COc1cccc(OC)c1-c1ccccc1NC(=O)N1CCCc2cc(C)ccc21`: 0.82 µM; for `CCn1c(SC)nnc1C1CCCN(CC(=O)Nc2nc3ccc(OC)cc3s2)C1` (centres undefined): 0.75 µM.
`Cc1cccc2[nH]c(-c3cccc(-c4cccc(NC(=O)C(C)CN5CCN(C)CC5)c4)c3)nc12` (centres undefined) displayed an IC50 of 0.54 µM.
`O=C(Nc1ccc(F)cc1)c1ccc(C(=O)NC2CCN(CC3CCCCC3)CC2)cc1` displayed an IC50 of 0.54 µM.
The same measure for `O=S(=O)(Nc1ccc(CCN2CCCCC2CCN2CCCC2)cc1)c1cccc2cccnc12` (centres undefined): 1.3 µM; for `COc1ccc(CC(C)NCC(O)c2cccc(Cl)c2)cc1C` (centres undefined): 0.9 µM.
Take `O=C(COc1cccc([N+](=O)[O-])c1)Nc1ccc(-c2nc3ccccc3[nH]2)cc1`: the IC50 was found to be 0.75 µM.
As for `CCCCCCNC(=O)C(N)CCCC(N)C(=O)NCCCCCC` (centres undefined), the IC50 worked out at 0.16 µM.
The same measure for `O=C(Nc1ccc(OC2CCN(Cc3ccc(F)cc3)CC2)c(Cl)c1)c1ccco1`: 0.3 µM; for `COC(=O)c1ccc2nc(-c3ccc(/C=C/C(=O)NC4CCN(Cc5ccccc5)CC4)cc3)[nH]c2c1`: 0.71 µM; for `Cc1cc(=O)[nH]c(-n2nc(C)cc2NC(=O)C(c2ccccc2)c2ccccc2)n1`: 0.84 µM.
Regarding `CCCc1cc(C(=O)N[C@@H](Cc2ccccc2)[C@H](O)CNC(C)C)c(F)c(N2CCCC2=O)c1`, the IC50 came to 0.94 µM.
As to `CC(C)(CN)c1nc(-c2ccc(Cl)c(O)c2)c(-c2ccncc2)[nH]1`, the IC50 amounted to 0.76 µM.
The same measure for `O=C(/C=C/c1ccccc1Cl)Nc1ccc(Br)c(OCCN2CCCCC2)c1`: 0.17 µM; for `CSc1ccc(CN2CCC(CNC(=O)c3cc(-c4ccccc4F)cs3)C2)cc1` (centres undefined): 1.14 µM.
The same measure for `COc1cccc(C2=CC(c3ccccc3)n3ncc(C(=O)Nc4ccc(Cl)cc4)c3N2)c1` (centres undefined): 1.06 µM.
The result for `Cc1cccc2[nH]c(-c3cccc(-c4cccc(NC(=O)Nc5ccsc5)c4)c3)nc12` reads 0.17 µM.
`CCCCCCCNC(=O)NCC1CCCN(CCCCCNC(=O)/C=C/c2ccc(Cl)c(Cl)c2)C1` (centres undefined) registered an IC50 of 1.04 µM.
The same measure for `CCCCCCNC(=O)C1Cc2c([nH]c3ccc(Br)cc23)C2(CCN(CCc3ccccc3)CC2)N1` (centres undefined): 0.79 µM.
In the case of `CC(C)COc1ccc(Cl)cc1Cc1ccc(-c2nc3cc(F)c(F)cc3[nH]2)o1`, the IC50 was determined as 0.89 µM.
The result for `CC(C)NCc1ccc(-c2cccc(NC(=O)c3ccc(Cl)cc3)c2)cc1` reads 0.29 µM; that for `Cc1cccc(C)c1CNc1ccnc2cc(C#N)ccc12`, 0.68 µM; that for `CC[C@H]1CN2CC[C@@H]1C[C@H]2[C@H](O)c1cc(-c2ccc(F)cc2)nc2ccc(O)cc12`, 0.14 µM.
The result for `COc1cc2nc(N3CCN(c4cc(C)ccc4C)CC3)nc(N)c2cc1OC` reads 0.85 µM; that for `CC(ON1C(N)=NC(N)=NC1(C)C)c1ccccc1` (centres undefined), 0.01 µM; that for `COc1ccc(CCn2c(=N)c(C(=O)NCc3ccccc3)cc3c(=O)n4cccc(C)c4nc32)cc1`, 0.34 µM.
The result for `O=C(C=CC(=O)N1CCCCC1)NCc1ccccc1` reads 0.73 µM.
